Broadly, the MIC is the smallest concentration in the dilution series that meets the test's criterion for growth inhibition.

MIC and EC50 data for 26 compounds are collected here from ChEMBL document CHEMBL5143624, “WCK 1152, WCK 1153: Discovery and structure activity relationship for the treatment of resistant pneumococcal and staphylococcal respiratory infections” (Bioorg Med Chem Lett, 2022).

Converted amounts (≈) assume the structure as drawn.

Assay [1] concerns Staphylococcus aureus. Kind of assay: Antibacterial activity against methicillin resistant Staphylococcus aureus assessed as inhibition of bacterial growth incubated for 18 hrs by CLSI based serial agar dilution method. In kind it is functional. (In general: In agar dilution the substance is mixed into plates at graded concentrations.)
Assay [2] has as its system Staphylococcus aureus. Kind of assay: Antibacterial activity against methicillin resistant Staphylococcus aureus 032 assessed as inhibition of bacterial growth incubated for 18 hrs by CLSI based serial agar dilution method. In kind it is functional.
Assay [3] concerns Staphylococcus aureus. Kind of assay: Antibacterial activity against methicillin resistant Staphylococcus aureus 5076 harbouring DNA gyrase and topoisomerase IV mutant and efflux pump assessed as inhibition of bacterial growth incubated for 18 hrs in presence of efflux inhibitor by CLSI based serial agar dilution method. It is filed as functional.
The test system of assay [4] is Staphylococcus aureus. Kind of assay: Antibacterial activity against Staphylococcus aureus […] assessed as inhibition of bacterial growth incubated for 18 hrs by CLSI based serial agar dilution method. It is filed as functional.
Assay [5] has as its system Streptococcus pneumoniae. The assay is described as follows: Antibacterial activity against beta-lactams, macrolide and fluoroquinolone resistant Streptococcus pneumoniae 718 infected in po dosed Swiss mouse septicemia model assessed as protective dose administered on 1 and 5 hrs post infection and measured on day 7. In kind it is functional, organism-based.
In assay [6] the test system is Streptococcus pneumoniae. The assay is described as follows: Antibacterial activity against Streptococcus pneumoniae assessed as inhibition of bacterial growth incubated for 18 hrs by CLSI based serial agar dilution method. In kind it is functional.
Assay [7] has as its system Streptococcus pneumoniae. Kind of assay: Antibacterial activity against Streptococcus pneumoniae 5844 harbouring moxifloxacin resistant DNA gyrase and topoisomerase IV mutant assessed as inhibition of bacterial growth incubated for 18 hrs by CLSI based serial agar dilution method. It is filed as functional. Conditions: Streptococcus pneumoniae, 5844, 18 h.
Assay [8] relates to Streptococcus pneumoniae. Kind of assay: Antibacterial activity against beta-lactams, macrolide and fluoroquinolone resistant Streptococcus pneumoniae 718 assessed as inhibition of bacterial growth incubated for 18 hrs by CLSI based serial agar dilution method. In kind it is functional.
In assay [9] the test system is Streptococcus pneumoniae. The assay is described as follows: Antibacterial activity against fluoroquinolone efflux positive Streptococcus pneumoniae 706 assessed as inhibition of bacterial growth incubated for 18 hrs by CLSI based serial agar dilution method. In kind it is functional.
The mark [10] stands for this setting: Staphylococcus aureus, read-out: MIC.
Where [11] appears, read: Staphylococcus aureus, 032, 18 h, read-out: MIC.
Setting [12] is: Streptococcus pneumoniae, 18 h, read-out: MIC.

In the case of `COc1c(N2CC[C@@H](N)C(C)(C)C2)c(F)cc2c(=O)c(C(=O)O)cn(C3CC3)c12`, the MIC in the assay with Staphylococcus aureus [1] (setting [10]) was determined as 0.05 µg/mL (≈ 0.124 µM); with Staphylococcus aureus [2] (setting [11]), 0.8 µg/mL (≈ 1.98 µM); in the assay with Staphylococcus aureus [3], 1.56 µg/mL; in the assay with Staphylococcus aureus [4] it was 0.05 µg/mL (≈ 0.124 µM). Moreover, the EC50 with Streptococcus pneumoniae [5] is 20 mg/kg.

Consider `CCNC1C(C)CN(c2c(F)cc3c(=O)c(C(=O)O)cn(C4CC4)c3c2OC)CC1C` (stereo in doubt), for which the MIC in the assay with Streptococcus pneumoniae [6] is 1.56 µg/mL (≈ 3.62 µM); in the assay on Staphylococcus aureus [1], 0.2 µg/mL (≈ 0.463 µM).

For the compound `COc1c(N2CCC(NC(C)=O)C(C)(C)C2)c(F)cc2c(=O)c(C(=O)O)cn(C3CC3)c12` (stereo not given), the values for the MIC in the assay with Streptococcus pneumoniae [6] (setting [12]) and in the assay with Staphylococcus aureus [1] (setting [10]) were 1.56 µg/mL (≈ 3.5 µM) and 0.4 µg/mL (≈ 0.898 µM), respectively.

`CCC1(C)CN(c2c(F)cc3c(=O)c(C(=O)O)cn(C4CC4)c3c2OC)CCC1N` (stereo not given): the minimum inhibitory concentration (MIC) with Streptococcus pneumoniae [6] (setting [12]) is 0.2 µg/mL (≈ 0.479 µM); with Staphylococcus aureus [1] (setting [10]), 0.1 µg/mL (≈ 0.24 µM); with Streptococcus pneumoniae [7], 2.5 µg/mL (≈ 5.99 µM).

Consider `CCN(CC)C1CCN(c2c(F)cc3c(=O)c(C(=O)O)cn(C4CC4)c3c2OC)CC1`, for which the MIC worked out at 0.8 µg/mL (≈ 1.85 µM) with Streptococcus pneumoniae [6] (setting [12]) and 0.2 µg/mL (≈ 0.463 µM) in the assay with Staphylococcus aureus [1] (setting [10]).

Regarding `COc1c(N2CC[C@H](N)C(C)(C)C2)c(F)cc2c(=O)c(C(=O)O)cn(C3CC3)c12`, the MIC with Staphylococcus aureus [1] (setting [10]) came out at 0.05 µg/mL (≈ 0.124 µM); with Streptococcus pneumoniae [8] (Streptococcus pneumoniae, 718, 18 h, read-out: MIC) it was 0.8 µg/mL (≈ 1.98 µM); with Staphylococcus aureus [2] (setting [11]), 0.8 µg/mL (≈ 1.98 µM); with Staphylococcus aureus [3], 1.56 µg/mL; with Staphylococcus aureus [4] it was 0.05 µg/mL (≈ 0.124 µM). Also, the EC50 with Streptococcus pneumoniae [5] is 50 mg/kg.

In the case of `CCn1cc(C(=O)O)c(=O)c2cc(F)c(N3CCC(N)C(C)(C)C3)c(OC)c21` (stereo not given), the MIC was determined as 1.56 µg/mL (≈ 3.99 µM) with Streptococcus pneumoniae [6] (setting [12]) and 6.25 µg/mL (≈ 16 µM) with Staphylococcus aureus [1] (setting [10]).

In the case of `COc1c(N2CC[C@@H](N)C(C)(C)C2)c(F)c(N)c2c(=O)c(C(=O)O)cn(C3CC3)c12`, the MIC in the assay on Streptococcus pneumoniae [6] (setting [12]) was 6.25 µg/mL (≈ 14.9 µM); in the assay with Staphylococcus aureus [1] (setting [10]), more than 12.5 µg/mL.

On to `COc1c(N2CCC(NC3CC3)C(C)C2)c(F)cc2c(=O)c(C(=O)O)cn(C3CC3)c12` (stereo not given), for which the MIC in the assay on Streptococcus pneumoniae [6] (setting [12]) was 1.56 µg/mL (≈ 3.63 µM); in the assay with Staphylococcus aureus [1] (setting [10]), 0.4 µg/mL (≈ 0.931 µM).

In the case of `CCC1(C)CN(c2c(F)cc3c(=O)c(C(=O)O)cn(C4CC4)c3c2OC)CCC1NC` (stereo not given), the MIC in the assay with Streptococcus pneumoniae [9] is 1.56 µg/mL (≈ 3.62 µM); with Streptococcus pneumoniae [7] it was 6.25 µg/mL (≈ 14.5 µM).

With `Cc1c(N2CCC(O)C(C)C2)c(F)cc2c(=O)c(C(=O)O)cn(C3CC3)c12` (stereo in doubt; form 2), the MIC in the assay with Streptococcus pneumoniae [8] and in the assay with Staphylococcus aureus [2] was 0.2 µg/mL (≈ 0.534 µM) throughout.

`Cc1c(F)c(N2CCC(N)C(C)(C)C2)nc2c1c(=O)c(C(=O)O)cn2-c1ccc(F)cc1F` (stereo not given): the MIC in the assay with Streptococcus pneumoniae [6] (setting [12]) was 1.56 µg/mL (≈ 3.39 µM); in the assay on Staphylococcus aureus [1] (setting [10]), more than 12.5 µg/mL.

`COc1c(N2CCC(N(C)C)C(C)(C)C2)c(F)cc2c(=O)c(C(=O)O)cn(C3CC3)c12` (stereo not given): the MIC was found to be 0.4 µg/mL (≈ 0.927 µM) in the assay with Streptococcus pneumoniae [6] (setting [12]) and 0.2 µg/mL (≈ 0.463 µM) with Staphylococcus aureus [1] (setting [10]).

Take `CCNC1CCN(c2c(F)cc3c(=O)c(C(=O)O)cn(C4CC4)c3c2OC)CC1C` (stereo not given): the MIC with Streptococcus pneumoniae [6] (setting [12]) turned out to be 1.56 µg/mL (≈ 3.74 µM); with Staphylococcus aureus [1] (setting [10]) it was 0.4 µg/mL (≈ 0.958 µM).

As for `COc1c(N2CC(C)C(N)C(C)C2)c(F)cc2c(=O)c(C(=O)O)cn(C3CC3)c12` (cis isomer), the minimum inhibitory concentration (MIC) with Staphylococcus aureus [1] was 0.1 µg/mL (≈ 0.248 µM).

`C[C@H]1CCc2c(N3CCC(O)CC3)c(F)cc3c(=O)c(C(=O)O)cn1c23` [LEVONADIFLOXACIN]: the MIC in the assay on Streptococcus pneumoniae [6] (setting [12]) and in the assay with Staphylococcus aureus [1] (setting [10]) was 0.4 µg/mL (≈ 1.11 µM) in each case.

Turning to `COc1c(N2CC(C)C(N)C(C)(C)C2)c(F)cc2c(=O)c(C(=O)O)cn(C3CC3)c12` (stereo not given), the MIC in the assay on Streptococcus pneumoniae [6] (setting [12]) was 0.2 µg/mL (≈ 0.479 µM); in the assay on Staphylococcus aureus [1] (setting [10]), 0.1 µg/mL (≈ 0.24 µM).

Consider `Cc1c(N2CCC(N)C(C)C2)c(F)cc2c(=O)c(C(=O)O)cn(C3CC3)c12.Cl` (stereo not given), for which the MIC with Staphylococcus aureus [2] came to 1.56 µg/mL.

Turning to `CNC1C(C)CN(c2c(F)cc3c(=O)c(C(=O)O)cn(C4CC4)c3c2OC)CC1C` (stereo not given), the MIC in the assay with Streptococcus pneumoniae [6] (setting [12]) is 0.4 µg/mL (≈ 0.958 µM); with Staphylococcus aureus [1] (setting [10]), 0.1 µg/mL (≈ 0.24 µM).

As to `CC1COc2c(N3CCN(C)CC3)c(F)cc3c(=O)c(C(=O)O)cn1c23` (stereo not given) [OFLOXACIN], the MIC in the assay on Streptococcus pneumoniae [6] (setting [12]) and with Staphylococcus aureus [1] (setting [10]) was 0.4 µg/mL (≈ 1.11 µM) throughout.

For the compound `CC1(C)CN(c2nc3c(cc2F)c(=O)c(C(=O)O)cn3C2CC2)CCC1N` (stereo not given), the MIC in the assay with Streptococcus pneumoniae [6] (setting [12]) is 3.12 µg/mL (≈ 8.33 µM); in the assay on Staphylococcus aureus [1] (setting [10]), more than 12.5 µg/mL.

For the compound `Cc1c(N2CCC(N)C(C)C2)c(F)cc2c(=O)c(C(=O)O)cn(C3CC3)c12` (trans isomer), in the assay on Staphylococcus aureus [2] (setting [11]), the MIC came to 0.8 µg/mL (≈ 2.14 µM).

As for `CCC1CN(c2c(F)cc3c(=O)c(C(=O)O)cn(C4CC4)c3c2OC)CCC1N` (stereo not given), the minimal inhibitory concentration (MIC) in the assay on Streptococcus pneumoniae [6] (setting [12]) stood at 0.8 µg/mL (≈ 1.98 µM); with Staphylococcus aureus [1] (setting [10]) it was 0.1 µg/mL (≈ 0.248 µM).

`Cc1c(N2CCC(N)C(C)C2)c(F)cc2c(=O)c(C(=O)O)cn(C3CC3)c12.Cl` (cis isomer): the EC50 with Streptococcus pneumoniae [5] turned out to be 30 mg/kg.

On to `COc1c(N2CC(C)C(N)C(C)C2)c(F)cc2c(=O)c(C(=O)O)cn(C3CC3)c12` (stereo in doubt), for which the minimum inhibitory concentration (MIC) with Streptococcus pneumoniae [6] (setting [12]) and in the assay on Staphylococcus aureus [1] (setting [10]) was 0.1 µg/mL (≈ 0.248 µM) throughout.

As to `Cc1c(N2CCC(N)C(C)(C)C2)c(F)cc2c(=O)c(C(=O)O)cn(C3CC3)c12.Cl` (racemic), in the assay with Streptococcus pneumoniae [5], the EC50 came to 30 mg/kg.
